*1 amine or outer side, *2 acyl side, *3 side chain or, on linkers, in order; H or OH if unused. Where a SMILES comes first, the peptide text is derived from it. Bridges are numbered along the chain shown (N, C = ends). Roman numbers before positions name the chains, in order. [ ]: non-standard residue; d: D form. Actinocin(1to9) = Cc1c2oc3c(C)ccc(C(=O)[*:2])c3nc-2c(C(=O)[*:1])c(N)c1=O; Pro(4-oxo) = O=C1CN[C@H](C(=O)O)C1; NMeV = CN[C@H](C(=O)O)C(C)C; Sar = CNCC(=O)O
Tested on: M. tuberculosis SHRE resistant
Test: microbe, parasite or virus in culture
Type: cell-based
Conditions: Mycobacterium tuberculosis

Cc1c2oc3c(C)ccc(C(=O)N[C@@H]4C(=O)N[C@@H](C(C)C)C(=O)N5CCC[C@H]5C(=O)N(C)CC(=O)N(C)[C@@H](C(C)C)C(=O)O[C@@H]4C)c3nc-2c(C(=O)N[C@@H]2C(=O)N[C@@H](C(C)C)C(=O)N3CC(=O)C[C@H]3C(=O)N(C)CC(=O)N(C)[C@@H](C(C)C)C(=O)O[C@@H]2C)c(N)c1=O [compound of formula (I), Transitmycin] (I: TV[Pro(4-oxo)][Sar][NMeV] / II: TVP[Sar][NMeV]; ester I:1-I:C, II:1-II:C; linker I:N-II:N via Actinocin(1to9))
MIC: 6.25 µg/mL

— patent publication US20160200769A1, “Compound, Transitmycin, Effective Against Bacterial and Viral Pathogens” (INDIAN COUNCIL OF MEDICAL RESEARCH, priority 2013, published 2016)
